Patent publication US10626144B2, “Peptide derivatives and uses thereof” (Nosopharm, priority 2014, dated 2020)
Numbered stars: 1 amine (or outer) side, 2 acyl side, 3 side chain; on linkers, the order of the positions; unused ones are H or OH. Square brackets hold non-standard residues; d marks the D form. Peptide text beside a SMILES is read from it. * marks the point of attachment. Pro(cis-4-CF3) = O=C(O)[C@@H]1C[C@H](C(F)(F)F)CN1; Phe(3-CN) = N#Cc1cccc(C[C@H](N)C(=O)O)c1; Phe(4-Cl) = N[C@@H](Cc1ccc(Cl)cc1)C(=O)O; Dab(3S-OH) = NC[C@H](O)[C@H](N)C(=O)O; Met(O2) = CS(=O)(=O)CC[C@H](N)C(=O)O; Phe(2-Me) = Cc1ccccc1C[C@H](N)C(=O)O; Ethylenediamine = C(CN[*:2])N[*:1]; Gly(cPent) = N[C@H](C(=O)O)C1CCCC1; ΔZArg = N=C(N)NCC/C=C(\N)C(=O)O; Gly(cPr) = N[C@H](C(=O)O)C1CC1; Lys(Me) = CNCCCC[C@H](N)C(=O)O; NMeK = CN[C@@H](CCCCN)C(=O)O; hLys = NCCCCC[C@H](N)C(=O)O; dOrn = NCCC[C@@H](N)C(=O)O; Orn = NCCC[C@H](N)C(=O)O; Dab = NCC[C@H](N)C(=O)O; NH(CH2)5NH2 = NCCCCCN*; NH(CH2)4NH2 = NCCCCN*; NHOH = ON*

Experiments:
Assay in all cases: MIC, broth microdilution (CLSI), reference strain
Details in all cases: CAMHB
[1] = tested on: Pseudomonas aeruginosa ATCC 27853
[2] = tested on: Escherichia coli ATCC 25922
[3] = tested on: Staphylococcus aureus ATCC 13709
[4] = tested on: Acinetobacter baumannii ATCC 19606

| Structure (SMILES) | Pa: MIC Pseudomonas aeruginosa ATCC 27853 [1] | Ec: MIC Escherichia coli ATCC 25922 [2] | Sa: MIC Staphylococcus aureus ATCC 13709 [3] | Ab: MIC Acinetobacter baumannii ATCC 19606 [4] |
| --- | --- | --- | --- | --- |
| C[C@H](NC(=O)[C@H](CCN)NC(=O)[C@@H](N)CCCCN)C(=O)NCC(=O)N[C@H](CCCN)C(=O)N1C[C@@H](C(F)(F)F)C[C@H]1C(=O)N[C@@H](Cc1cnc[nH]1)C(=O)N[C@@H](CCCCN)C(=O)N/C(=C\CCNC(=N)N)C(=O)N[C@@H](CCCCN)C(=O)NCCCCN [14.15] (H-K[Dab]AG[dOrn][Pro(cis-4-CF3)]HK[ΔZArg]K-{NH(CH2)4NH2}) | − (>32 μg/mL) | − (>32 μg/mL) | ++ (≤8 μg/mL) | − (>32 μg/mL) |
| CNCCCC[C@H](N)C(=O)N[C@H](C(=O)N[C@@H](C)C(=O)NCC(=O)N[C@H](CCCN)C(=O)N1CCC[C@H]1C(=O)N[C@@H](Cc1cnc[nH]1)C(=O)N[C@@H](CCCCN)C(=O)N/C(=C\CCNC(=N)N)C(=O)N[C@@H](CCCCN)C(=O)NCCCCN)[C@@H](O)CN [24.43] (H-[Lys(Me)][Dab(3S-OH)]AG[dOrn]PHK[ΔZArg]K-{NH(CH2)4NH2}) | + (≤32 μg/mL) | ++ (≤8 μg/mL) | ++ (≤8 μg/mL) | − (>32 μg/mL) |
| C[C@H](NC(=O)[C@H](CCN)NC(=O)[C@@H](N)CCCCN)C(=O)NCC(=O)N[C@H](CCCN)C(=O)N1CCC[C@H]1C(=O)N[C@@H](Cc1cnc[nH]1)C(=O)N[C@@H](CCCCN)C(=O)N/C(=C\CCNC(=N)N)C(=O)N[C@@H](CCCCN)C(=O)NCCN [14.6] (H-K[Dab]AG[dOrn]PHK[ΔZArg]K-Ethylenediamine) | − (>32 μg/mL) | + (≤32 μg/mL) | ++ (≤8 μg/mL) | − (>32 μg/mL) |
| N=C(N)NCC/C=C(\NC(=O)[C@H](CCCCN)NC(=O)[C@H](Cc1cnc[nH]1)NC(=O)[C@@H]1CCCN1C(=O)[C@@H](CCCN)NC(=O)CNC(=O)[C@@H](NC(=O)[C@@H](NC(=O)[C@@H](N)CCCCN)[C@@H](O)CN)C1CCCC1)C(N)=O [220.1] (H-K[Dab(3S-OH)][Gly(cPent)]G[dOrn]PHK[ΔZArg]-NH2) | − (>32 μg/mL) | + (≤32 μg/mL) | ++ (≤8 μg/mL) | − (>32 μg/mL) |
| CN[C@@H](CCCCN)C(=O)N[C@H](C(=O)N[C@@H](C)C(=O)NCC(=O)N[C@H](CCCN)C(=O)N1CCC[C@H]1C(=O)N[C@@H](Cc1ccc(Cl)cc1)C(=O)N[C@@H](CCCCN)C(=O)N/C(=C\CCNC(=N)N)C(=O)O)[C@@H](O)CN [24.98] (H-[NMeK][Dab(3S-OH)]AG[dOrn]P[Phe(4-Cl)]K[ΔZArg]-OH) | − (>32 μg/mL) | + (≤32 μg/mL) | ++ (≤8 μg/mL) | − (>32 μg/mL) |
| Cc1ccccc1C[C@H](NC(=O)[C@@H]1CCCN1C(=O)[C@@H](CCCN)NC(=O)CNC(=O)[C@H](C)NC(=O)[C@@H](NC(=O)[C@@H](N)CCCCN)[C@@H](O)CN)C(=O)N[C@@H](CCCCN)C(=O)N/C(=C\CCNC(=N)N)C(=O)O [24.83] (H-K[Dab(3S-OH)]AG[dOrn]P[Phe(2-Me)]K[ΔZArg]-OH) | − (>32 μg/mL) | + (≤32 μg/mL) | ++ (≤8 μg/mL) | − (>32 μg/mL) |
| C[C@H](NC(=O)[C@@H](NC(=O)[C@@H](N)CCCCN)[C@@H](O)CN)C(=O)NCC(=O)N[C@H](CCCN)C(=O)N1CCC[C@H]1C(=O)N[C@@H](C)C(=O)N[C@@H](CCCCN)C(=O)N/C(=C\CCNC(=N)N)C(=O)O [24.158] (H-K[Dab(3S-OH)]AG[dOrn]PAK[ΔZArg]-OH) | − (>32 μg/mL) | − (>32 μg/mL) | + (≤32 μg/mL) | − (>32 μg/mL) |
| C[C@H](NC(=O)[C@@H](NC(=O)[C@@H](N)CCCCN)[C@@H](O)CN)C(=O)NCC(=O)N[C@H](CCCN)C(=O)N1CCC[C@H]1C(=O)N[C@@H](CCS(C)(=O)=O)C(=O)N[C@@H](CCCCN)C(=O)N/C(=C\CCNC(=N)N)C(=O)O [24.133] (H-K[Dab(3S-OH)]AG[dOrn]P[Met(O2)]K[ΔZArg]-OH) | − (>32 μg/mL) | − (>32 μg/mL) | + (≤32 μg/mL) | − (>32 μg/mL) |
| CNCCCC[C@H](N)C(=O)N[C@H](C(=O)N[C@@H](C)C(=O)NCC(=O)N[C@H](CCCN)C(=O)N1CCC[C@H]1C(=O)N[C@@H](Cc1ccc(Cl)cc1)C(=O)N[C@@H](CCCCN)C(=O)N/C(=C\CCNC(=N)N)C(=O)O)[C@@H](O)CN [24.148] (H-[Lys(Me)][Dab(3S-OH)]AG[dOrn]P[Phe(4-Cl)]K[ΔZArg]-OH) | − (>32 μg/mL) | ++ (≤8 μg/mL) | ++ (≤8 μg/mL) | − (>32 μg/mL) |
| N=C(N)NCC/C=C(\NC(=O)[C@H](CCCCN)NC(=O)[C@H](Cc1cnc[nH]1)NC(=O)[C@@H]1CCCN1C(=O)[C@@H](CCCN)NC(=O)CNC(=O)[C@@H](NC(=O)[C@@H](NC(=O)[C@@H](N)CCCCN)[C@@H](O)CN)C1CC1)C(N)=O [213.1] (H-K[Dab(3S-OH)][Gly(cPr)]G[dOrn]PHK[ΔZArg]-NH2) | − (>32 μg/mL) | + (≤32 μg/mL) | ++ (≤8 μg/mL) | − (>32 μg/mL) |
| C[C@H](NC(=O)[C@@H](NC(=O)[C@@H](N)CCCCN)[C@@H](O)CN)C(=O)NCC(=O)N[C@H](CCCN)C(=O)N1CCC[C@H]1C(=O)N[C@@H](Cc1cccc(C#N)c1)C(=O)N[C@@H](CCCCN)C(=O)N/C(=C\CCNC(=N)N)C(=O)O [24.89] (H-K[Dab(3S-OH)]AG[dOrn]P[Phe(3-CN)]K[ΔZArg]-OH) | − (>32 μg/mL) | + (≤32 μg/mL) | ++ (≤8 μg/mL) | − (>32 μg/mL) |
| C[C@H](NC(=O)[C@@H](NC(=O)[C@@H](N)CCCCCN)[C@@H](O)CN)C(=O)NCC(=O)N[C@H](CCCN)C(=O)N1CCC[C@H]1C(=O)N[C@@H](Cc1cnc[nH]1)C(=O)N[C@@H](CCCCN)C(=O)N/C(=C\CCNC(=N)N)C(N)=O [24.69] (H-[hLys][Dab(3S-OH)]AG[dOrn]PHK[ΔZArg]-NH2) | − (>32 μg/mL) | + (≤32 μg/mL) | ++ (≤8 μg/mL) | − (>32 μg/mL) |
| N=C(N)NCC/C=C(\NC(=O)[C@H](CCCCN)NC(=O)[C@H](Cc1c[nH]c2ccccc12)NC(=O)[C@@H]1CCCN1C(=O)[C@@H](CCCN)NC(=O)CNC(=O)[C@H](CCN)NC(=O)[C@@H](NC(=O)[C@@H](N)CCCCN)[C@@H](O)CN)C(=O)O [21.12] (H-K[Dab(3S-OH)][Dab]G[dOrn]PWK[ΔZArg]-OH) | − (>32 μg/mL) | ++ (≤8 μg/mL) | ++ (≤8 μg/mL) | − (>32 μg/mL) |
| N=C(N)NCC/C=C(\NC(=O)[C@H](CCCCN)NC(=O)[C@H](Cc1c[nH]cn1)NC(=O)[C@@H]1CCCN1C(=O)[C@@H](CCCN)NC(=O)CNC(=O)[C@@H](NC(=O)[C@@H](NC(=O)[C@@H](N)CCCCN)[C@@H](O)CN)[C@@H](O)CN)C(=O)N[C@@H](CCCCN)C(=O)NCCCCCN [22.12] (H-K[Dab(3S-OH)][Dab(3S-OH)]G[dOrn]PHK[ΔZArg]K-{NH(CH2)5NH2}; C-terminus assumed) | − (>32 μg/mL) | ++ (≤8 μg/mL) | ++ (≤8 μg/mL) | − (>32 μg/mL) |
| C[C@H](NC(=O)[C@@H](NC(=O)[C@@H](N)CCCCN)[C@@H](O)CN)C(=O)NCC(=O)N[C@H](CCCN)C(=O)N1CCC[C@H]1C(=O)N[C@@H](Cc1cnc[nH]1)C(=O)N[C@@H](CCCN)C(=O)N[C@H](CCCNC(=N)N)C(N)=O [24.128] (H-K[Dab(3S-OH)]AG[dOrn]PH[Orn][dR]-NH2) | − (>32 μg/mL) | − (>32 μg/mL) | ++ (≤8 μg/mL) | − (>32 μg/mL) |
| N=C(N)NCC/C=C(\NC(=O)[C@H](CCCCN)NC(=O)[C@H](Cc1cnc[nH]1)NC(=O)[C@@H]1CCCN1C(=O)[C@@H](CCCN)NC(=O)CNC(=O)[C@@H](NC(=O)[C@@H](NC(=O)[C@@H](N)CCCCN)[C@@H](O)CN)[C@@H](O)CN)C(=O)O [22.20] (H-K[Dab(3S-OH)][Dab(3S-OH)]G[dOrn]PHK[ΔZArg]-OH) | ++ (≤8 μg/mL) | + (≤32 μg/mL) | ++ (≤8 μg/mL) | − (>32 μg/mL) |
| C[C@H](NC(=O)[C@H](CCN)NC(=O)[C@@H](N)CCCCN)C(=O)NCC(=O)N[C@H](CCCN)C(=O)N1CCC[C@H]1C(=O)N[C@@H](Cc1cnc[nH]1)C(=O)N[C@@H](CCCCN)C(=O)N/C(=C\CCNC(=N)N)C(=O)N[C@@H](CCCCN)C(=O)NO [14.14] (H-K[Dab]AG[dOrn]PHK[ΔZArg]K-{NHOH}) | − (>32 μg/mL) | − (>32 μg/mL) | ++ (≤8 μg/mL) | − (>32 μg/mL) |
| C[C@H](NC(=O)[C@H](CCN)NC(=O)[C@@H](N)CCN)C(=O)NCC(=O)N[C@H](CCCN)C(=O)N1CCC[C@H]1C(=O)N[C@@H](Cc1cnc[nH]1)C(=O)N[C@@H](CCCCN)C(=O)N/C(=C\CCNC(=N)N)C(=O)N[C@@H](CCCCN)C(=O)NCCCCN [14.25] (H-[Dab][Dab]AG[dOrn]PHK[ΔZArg]K-{NH(CH2)4NH2}) | − (>32 μg/mL) | − (>32 μg/mL) | + (≤32 μg/mL) | − (>32 μg/mL) |
